Experimental data from patent publication US9187465B2, “Oxazole tyrosine kinase inhibitors” (Sareum Limited, priority 2007, dated 2015).
Like-named read-outs stand apart in the source and are kept apart here.

Assays:
human Aurora A = molecular target: T1, human Aurora A (Homo sapiens, UniProt O14965); test: Aurora A kinase assay (DELFIA enzyme inhibition); assay type: biochemical
T1 construct: Histidine tag (N); host or cells: Sf9 insect cells (baculovirus)
T1 sequence (O14965 1-403): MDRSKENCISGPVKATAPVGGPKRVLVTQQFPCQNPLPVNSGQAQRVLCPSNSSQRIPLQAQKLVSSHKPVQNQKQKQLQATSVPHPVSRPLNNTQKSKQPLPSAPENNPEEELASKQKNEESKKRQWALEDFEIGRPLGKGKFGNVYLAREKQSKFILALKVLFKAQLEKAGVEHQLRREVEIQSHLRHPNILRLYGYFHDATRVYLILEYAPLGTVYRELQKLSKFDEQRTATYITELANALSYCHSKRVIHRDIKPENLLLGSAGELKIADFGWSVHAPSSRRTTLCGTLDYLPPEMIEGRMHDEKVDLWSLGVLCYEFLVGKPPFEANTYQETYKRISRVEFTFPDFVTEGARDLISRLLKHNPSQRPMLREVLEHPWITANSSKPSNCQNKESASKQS
Description: The protein was purified by one-step affinity chromatography using nickel-agarose […]
Assay reactions are set up in a 25 uL final volume on a 96 well plate. […] The reaction is allowed to proceed for 30 minutes at room temperature before stopping with 100 μL Stop solution comprising of 100 mM EDTA, 1×BSA blocker in TBS (Perbio) and 0.05% Surfact-Amps20 (Perbio).
The stopped reaction is transferred to a black 96-well Neutravidin-coated plate (Perbio) and incubated for 30 minutes to capture the biotinylated peptide substrate. […] After repeating the washing step, the plate is further incubated for one hour with Europium-labelled anti-rabbit antibody (Perkin Elmer AD0105). The wash step is repeated for a final time before DELFIA Enhancement solution (Perkin Elmer) is added to all wells for 5 minutes and the fluorescence measured on a plate reader Analyst HT (Molecular Devices).

human FLT4 = molecular target: T2, human FLT4 (Homo sapiens, UniProt P35916); test: FLT4 kinase assay (DELFIA enzyme inhibition); assay type: biochemical
T2 construct: a construct expressing the human FLT4 (789-1207) with an amino terminal GST tag; host or cells: Sf9 insect cells (baculovirus)
Description: A GST-kinase fusion protein of 70 KDa was produced using sf9 baculovirus expression system, with a construct expressing the human FLT4 (789-1207) with an amino terminal GST tag. The protein was purified by affinity chromatography using glutathione-agarose followed by separation on a gel filtration column.
FLT4 enzyme activity is determined using a Dissociation Enhanced Lanthanide Fluorescent Immunoassay (DELFIA) with a peptide substrate derived from the MET (Tyr 1253) peptide […] with a core sequence […].
The amount of phosphorylated peptide produced is detected by means of a phospho-Tyrosine specific Europium-labelled antibody using Time-Resolved Fluorescence at Excitation 360-35 nm and Emission 620-35 nm.
Assay reactions are set up in a 25 uL final volume on a 96 well plate. […] The reaction is allowed to proceed for 30 minutes at room temperature before stopping with 100 uL Stop solution comprising of 100 mM EDTA, 1×BSA blocker in TBS (Perbio) and 0.05% Surfact-Amps20 (Perbio).
The stopped reaction is transferred to a black 96-well Neutravidin-coated plate (Perbio) and incubated for 30 minutes to capture the biotinylated peptide substrate. After washing wells 3 times with 200 uL TBS/T buffer, Anti-Phospho-Tyr-100 antibody labelled with Eu—N1 (Perkin Elmer AD0159) is added to all wells for 60 minutes at room temperature. After a repeat washing step, DELFIA Enhancement solution (Perkin Elmer) is added to all wells for 5 minutes and the fluorescence measured on a plate reader Analyst HT (Molecular Devices).
The % inhibition of the activity is calculated and plotted in order to determine the concentration of test compound required to inhibit 50% of the enzyme activity (IC50).

T2 sequence (P35916 789-1207): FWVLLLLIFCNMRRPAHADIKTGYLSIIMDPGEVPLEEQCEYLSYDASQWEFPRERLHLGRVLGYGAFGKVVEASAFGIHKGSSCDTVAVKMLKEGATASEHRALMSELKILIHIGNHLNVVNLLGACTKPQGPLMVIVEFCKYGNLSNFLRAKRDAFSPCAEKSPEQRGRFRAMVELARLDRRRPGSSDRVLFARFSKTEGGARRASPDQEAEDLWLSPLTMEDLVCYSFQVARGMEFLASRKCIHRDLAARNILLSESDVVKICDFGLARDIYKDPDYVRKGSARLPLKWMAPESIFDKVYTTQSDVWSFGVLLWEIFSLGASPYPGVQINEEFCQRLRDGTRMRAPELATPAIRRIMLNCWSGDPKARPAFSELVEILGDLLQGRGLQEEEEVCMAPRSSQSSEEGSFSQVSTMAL

Row | SMILES | IC50 (human Aurora A; read-out: Aurora A IC50) | IC50 (human FLT4; read-out: FLT4 IC50) | IC50 (human Aurora A) | IC50 (human FLT4)
1 | NC(=O)c1nc(-c2c(F)cccc2F)oc1-c1ccc(NCCN2CCCCC2)cc1 [Example F-32, 2-(2,6-difluorophenyl)-5-(4-(2-(piperidin-1-yl)ethylamino)phenyl)oxazole-4-carboxamide] | < 10 µM | < 10 µM | – | –
2 | NC(=O)c1nc(-c2c(F)cccc2F)oc1-c1cccc2cccnc12 [Example F-37, 2-(2,6-difluorophenyl)-5-(quinolin-8-yl)oxazole-4-carboxamide] | < 100 µM | – | – | –
3 | NC(=O)c1nc(-c2c(F)cccc2F)oc1Nc1ccc(C(=O)N[C@@H]2CCCNC2)cc1 [Example Q-53, (R)-2-(2,6-difluorophenyl)-5-(4-(piperidin-3-ylcarbamoyl)phenylamino)oxazole-4-carboxamide] | < 10 µM | < 10 µM | – | –
4 | NC(=O)c1[nH]c(-c2c(F)cccc2F)nc1-c1ccccc1F [Example A-18, 2-(2,6-difluorophenyl)-4-(2-fluorophenyl)-1H-imidazole-5-carboxamide] | < 10 µM | – | – | –
5 | COc1ccc(-c2nc(-c3cn(C)c4ccccc34)[nH]c2C(N)=O)cc1 [Example B-4, 4-(4-methoxyphenyl)-2-(1-methyl-1H-indol-3-yl)-1H-imidazole-5-carboxamide] | < 100 µM | < 100 µM | – | –
6 | NCCNC(=O)c1ccc(Nc2oc(-c3c(F)cccc3F)nc2C(N)=O)cc1 [Example Q-52, 5-(4-((2-aminoethyl)carbamoyl)phenylamino)-2-(2,6-difluorophenyl)oxazole-4-carboxamide] | < 10 µM | < 10 µM | – | –
7 | CNCCNC(=O)c1ccc(Nc2oc(-c3c(F)cccc3F)nc2C(N)=O)cc1 [Example U-3, 5-(4-((2-(methylamino)ethyl)carbamoyl)phenylamino)-2-(2,6-difluorophenyl) oxazole-4-carboxamide] | < 10 µM | < 10 µM | – | –
8 | NC(=O)c1nc(-c2cccnc2)oc1-c1ccc(N2CCNCC2)cc1 [Example M-13, 5-(4-(piperazin-1-yl)phenyl)-2-(pyridin-3-yl)oxazole-4-carboxamide] | < 10 µM | < 10 µM | – | –
9 | NC(=O)c1nc(-c2ccc3[nH]ccc3c2)oc1-c1ccc(N2CCNCC2)cc1 [Example M-15, 2-(1H-indol-5-yl)-5-(4-(piperazin-1-yl)phenyl)oxazole-4-carboxamide] | < 10 µM | < 10 µM | – | –
10 | NC(=O)c1nc(-c2c(F)cccc2F)oc1Nc1cccnc1 [Example Q-45, 2-(2,6-difluorophenyl)-5-(pyridin-3-ylamino)oxazole-4-carboxamide] | < 10 µM | < 10 µM | – | –
11 | COc1ccc(-c2nc(-c3c(Cl)cccc3Cl)[nH]c2C(N)=O)cc1 [Example A-10, 2-(2,6-dichlorophenyl)-4-(4-methoxyphenyl)-1H-imidazole-5-carboxamide] | < 100 µM | < 100 µM | – | –
12 | COc1ccc(-c2oc(-c3ccc(C(F)(F)F)cc3F)nc2C(N)=O)cc1 [Example N-5, 2-(2-fluoro-4-(trifluoromethyl)phenyl)-5-(4-methoxyphenyl)oxazole-4-carboxamide] | < 100 µM | – | – | –
13 | NC(=O)c1nc(-c2c(F)cccc2F)oc1Nc1ccc2c(c1)OCO2 [Example Q-41, 5-(benzo[d][1,3]dioxol-5-ylamino)-2-(2,6-difluorophenyl)oxazole-4-carboxamide] | < 100 µM | < 100 µM | – | –
14 | CN1C2CCC1CC(NC(=O)c1ccc(Nc3oc(-c4c(F)cccc4F)nc3C(N)=O)cc1)C2 (centres unmarked) [Example U-11, 5-(4-((8-methyl-8-aza-bicyclo[3.2.1]octan-3-yl)carbamoyl)phenylamino)-2-(2,6-difluorophenyl)oxazole-4-carboxamide] | – | – | < 10 µM | < 10 µM
15 | CCCN(CCO)CCOc1ccc(-c2oc(-c3c(F)cccc3F)nc2C(N)=O)cc1 [Example S-16, 2-(2,6-difluorophenyl)-5-(4-(2-((2-hydroxyethyl)(propyl)amino)ethoxy)phenyl)oxazole-4-carboxamide] | < 10 µM | < 10 µM | – | –
16 | COc1ccc(-c2oc(Nc3cccc(C)c3)nc2C(N)=O)cc1 [Example R-6, 2-(m-toluidino)-5-(4-methoxyphenyl)oxazole-4-carboxamide] | < 10 µM | < 10 µM | – | –
17 | CN(C)CCNC(=O)c1ccc(Nc2oc(-c3c(F)cccc3F)nc2C(N)=O)cc1 [Example U-8, 5-(4-((2-(dimethylamino)ethyl)carbamoyl)phenylamino)-2-(2,6-difluorophenyl) oxazole-4-carboxamide] | < 10 µM | < 10 µM | – | –
18 | Cc1ccccc1Nc1nc(C(N)=O)c(-c2ccc(N3CCNCC3)cc2)o1 [Example R-10, 2-(o-toluidino)-5-(4-(piperazin-1-yl)phenyl)oxazole-4-carboxamide] | < 10 µM | < 10 µM | – | –
19 | COc1ccc(-c2nc(-c3c[nH]c4ccccc34)[nH]c2C(N)=O)cc1 [Example A-13, 2-(1H-indol-3-yl)-4-(4-methoxyphenyl)-1H-imidazole-5-carboxamide] | < 100 µM | < 10 µM | – | –
20 | NC(=O)c1nc(-c2ccncc2)oc1-c1ccc(N2CCNCC2)cc1 [Example M-14, 5-(4-(piperazin-1-yl)phenyl)-2-(pyridin-4-yl)oxazole-4-carboxamide] | < 10 µM | < 10 µM | – | –
21 | COc1ccc(-c2nc(-c3cccc(C)c3)[nH]c2C(N)=O)cc1 [Example A-7, 4-(4-methoxyphenyl)-2-m-tolyl-1H-imidazole-5-carboxamide] | < 100 µM | < 100 µM | – | –
22 | NC(=O)c1nc(-c2c(F)cccc2F)oc1-c1cccc2ccccc12 [Example F-35, 2-(2,6-difluorophenyl)-5-(naphthalen-1-yl)oxazole-4-carboxamide] | < 100 µM | – | – | –
23 | COc1ccc(-c2nc(-c3ccncc3)[nH]c2C(N)=O)cc1 [Example B-1, 4-(4-methoxyphenyl)-2-(pyridin-4-yl)-1H-imidazole-5-carboxamide] | < 100 µM | < 100 µM | – | –
24 | CC(=O)Nc1ccc(-c2oc(-c3c(F)cccc3F)nc2C(N)=O)cc1 [Example F-23, 5-(4-acetamidophenyl)-2-(2,6-difluorophenyl)oxazole-4-carboxamide] | < 100 µM | < 10 µM | – | –
25 | NC(=O)c1nc(-c2c(F)cccc2F)oc1-c1cccc2[nH]ccc12 [Example F-36, 2-(2,6-difluorophenyl)-5-(1H-indol-4-yl)oxazole-4-carboxamide] | < 100 µM | – | – | –
26 | COc1ccc(-c2oc(-c3ccc(C(F)(F)F)cc3)nc2C(N)=O)cc1 [Example N-4, 5-(4-methoxyphenyl)-2-(4-(trifluoromethyl)phenyl)oxazole-4-carboxamide] | < 100 µM | – | – | –
27 | COc1ccc(-c2oc(-c3ccccc3C(N)=O)nc2C(N)=O)cc1 [Example M-6, 2-(2-carbamoylphenyl)-5-(4-methoxyphenyl)oxazole-4-carboxamide] | < 100 µM | – | – | –
28 | COc1ccc(-c2oc(-c3ccc(C)cc3)nc2C(N)=O)cc1 [Example N-9, 5-(4-methoxyphenyl)-2-p-tolyloxazole-4-carboxamide] | < 100 µM | – | – | –
29 | COc1ccc(-c2oc(Nc3c(F)cccc3F)nc2C(N)=O)cc1 [Example R-9, 2-(2,6-difluorophenylamino)-5-(4-methoxyphenyl)oxazole-4-carboxamide] | < 10 µM | – | – | –
30 | COc1ccc(-c2oc(-c3cc(C(F)(F)F)ccc3F)nc2C(N)=O)cc1 [Example N-6, 2-(2-fluoro-5-(trifluoromethyl)phenyl)-5-(4-methoxyphenyl)oxazole-4-carboxamide] | < 100 µM | – | – | –
